This note sets out measurements from patent US7674954B2, “DNA constructs that contain Helianthus annuus Hahb-10 gene coding sequence, method for generating plants with a shortened life cycle and a high tolerance to herbicidal compounds and transgenic plants with that sequence” (Universidad Nacional del Litoral, priority 2006, dated 2010).

SMILES strings stand for the structures.

Assay [1] deals with 35S-Hahb10 transgenic Arabidopsis plants. The experiment in a line: Stem elongation after gibberellin spraying, Hahb-10 overexpressing plants. The class given is in vivo, Arabidopsis thaliana. On the procedure:
(§1) Stem height was measured with a ruler in non transformed (1) or 35S-Hahb10 transgenic plants (2: line A; 3: line B and 4: line C). Grey bars represent three transgenic lines and white bars represent wild-type plants. Right series in each panel represent GA3 treated plants while left series represent their non-treated counterparts. […] Arabidopsis transgenic or wild-type plants were grown under normal illumination conditions for 15 days. After this, the plants were sprayed with 200 μM GA3. This treatment was repeated at day 25. Stem length was measured in 20- and 30-day-old plants with a ruler. […] In order to investigate the response of Hahb-10 overexpressing lines to this hormone, we treated plants with 200 μM gibberellins as described above.

Assay [2] has as its system Hahb-10 transcript levels. Kind of assay: Northern blot of Hahb-10 transcript levels in treated sunflower seedlings. It is filed as in vivo, Helianthus annuus. As to the method:
2A: Total RNA samples (20 μg each) extracted from 4-day-old seedlings subjected to different treatments as described later were hybridized with a ^32P-labeled Hahb-10 cDNA specific probe (A, upper panel). The same filter was hybridized with an rRNA probe as a control for RNA loading and transfer. Spots obtained with the specific probe were quantified in reference to their rRNA using Image Pro Plus software. […] Quantitation of the signals has been done taking as standard value the signal obtained in these seedlings because the signal obtained in control seedlings was almost not detectable by the software used for this purpose. 2B: Total RNA samples (20 μg each) extracted from 7-day-old seedlings grown in normal illumination conditions (lane 1), in the dark (lane 2), or under continuous illumination at 40 cm from the light source applied to 4-day-old seedlings germinated in the dark during 3 additional days (lane 3) were analyzed by electrophoresis, transferred onto nylon membranes and hybridized with a ^32P-labelled Hahb-10 cDNA specific probe (upper panel). The same filter was hybridized with an rRNA probe as a control for RNA loading and transfer (lower panel). […]

Assay [3] concerns non-transformed (wild-type) Arabidopsis plants. Kind of assay: Stem elongation after gibberellin spraying, non-transformed plants. The class given is in vivo, Arabidopsis thaliana. On the procedure: as §1
Assay [4] has as its system wild-type Arabidopsis thaliana. The experiment in a line: Herbicide (methyl viologen) spraying, non-transformed plants. It is filed as in vivo. To be noted: 10 to 30 μM methyl viologen sprayed on 21-day-old plants, correlating to concentration. On the procedure:
(§2) Treatments with the herbicide Paraquat were carried out by growing transgenic and wild-type 21-day-old plants under normal conditions and spraying them with methyl viologen at concentrations of 10, 20 or 30 μM.
(§3) In order to study the effect of Hahb-10 overexpression on the tolerance to herbicides, transgenic and wild-type 21-day-old Arabidopsis thaliana were grown under normal conditions and were sprayed with methyl viologen at concentrations of 10, 20 or 30 μM. Once sprayed, they were left at the same illumination and temperature conditions for 24 hours and, at that time, leaf impairment was easily observable. One week after MV treatment, chlorophyll content in the leaves from both genotypes was analyzed. Plants were allowed to recover for three days and the percentage of survivors, either wild-type or transgenic ones expressing the Hahb-10 gene, was recorded.

The test system of assay [5] is transgenic Arabidopsis thaliana expressing the Hahb-10 gene. The experiment in a line: Herbicide (methyl viologen) spraying, Hahb-10 transgenic plants. It is filed as in vivo. Conditions: 10 to 30 μM methyl viologen sprayed on 21-day-old plants; three independent transgenic lines; dose-dependent. On the procedure: as §2, §3

Regarding `C=C1C[C@]23C[C@@]1(O)CC[C@H]2[C@@]12C=C[C@H](O)[C@@](C)(C(=O)O1)[C@H]2[C@@H]3C(=O)O` [gibberellins, gibberellic acid], the “increase in stem length with respect to non-treated controls” value in assay [1] (200 μM gibberellins sprayed, 5 days after the first treatment (20-day-old plants)) is 1.6 fold. The “stem elongation induction on average” value was found to be 1.2 fold in assay [1] (200 μM gibberellins, after the second treatment (30-day-old plants)) and 1.5 fold in assay [3] (200 μM gibberellins, after the second treatment (30-day-old plants), wild-type plants). Further, in assay [2] (100 μM gibberellic acids, Northern blot normalised to rRNA), the “Hahb-10 transcript levels raised with respect to the heat-shock treatment” value was 5 fold. The “increase in stem elongation with respect to non-treated controls” value in assay [3] (200 μM gibberellins sprayed, 5 days after the first treatment (20-day-old plants), non-transformed plants) worked out at 3.7 fold.

With `OC[C@H]1O[C@@](CO)(O[C@H]2O[C@H](CO)[C@@H](O)[C@H](O)[C@H]2O)[C@@H](O)[C@@H]1O` [sucrose], the “effect on Hahb-10 mRNA levels” value in assay [2] (sucrose 10% w/v, similar to slight enhancement by heat/cold shock, water stress, hypoxia) was “produced a similar effect”.

Take `C[n+]1ccc(-c2cc[n+](C)cc2)cc1` [methyl viologen]: the “effect of herbicide treatment on plants” value in assay [4] was “dramatically affected”; in assay [5], “resistant”.
